Data reported in US11331314B2, “Amine substituted triazole derivatives and uses thereof” (Bayer Pharma Aktiengesellschaft, priority 2017, dated 2022).

How the values were obtained:
[1] = biological target: T1, human V2 receptor (Homo sapiens, UniProt P30518); test: Cellular in vitro assay for determining vasopressin receptor activity, V2 receptor cell line (CRE-luciferase); assay type: cell-based; conditions: CHO cell line transfected with the human V2 receptor; agonist [Arg8]-vasopressin at EC50 concentration; read-out: IC50 hV2
T1 construct: expressed in transfected cells; host or cells: CHO K1 (ATCC) expressing firefly luciferase under a CRE-responsive promoter
Procedure: (§1) B-1. Cellular In Vitro Assay for Determining Vasopressin Receptor Activity
(§2) The identification of agonists and antagonists of the V1a and V2 vasopressin receptors from humans, rats and dogs as well as the quantification of the activity of the compounds of the invention is carried out using recombinant cell lines. These cell lines originally derive from a hamster's ovary epithelial cell (Chinese Hamster Ovary, CHO K1, ATCC: American Type Culture Collection, Manassas, Va. 20108, USA). The test cell lines constitutively express the human, rat or dog V1a or V2 receptors. In case of the Gαq-coupled V1a receptors, cells are also stably transfected with a modified form of the calcium-sensitive photoproteins aequorin (human and rat V1a) or obelin (dog V1a), which, after reconstitution with the cofactor coelenterazine, emit light when there are increases in free calcium concentrations [Rizzuto R, Simpson A W, Brini M, Pozzan T, Nature 358, 325-327 (1992); Illarionov B A, Bondar V S, Illarionova V A, Vysotski E S, Gene 153 (2), 273-274 (1995)]. The resulting vasopressin receptor cells react to stimulation of the recombinantly expressed V1a receptors by intracellular release of calcium ions, which can be quantified by the resulting photoprotein luminescence. The Gs-coupled V2 receptors are stably transfected into cell lines expressing the gene for firefly luciferase under control of a CRE-responsible promoter. Activation of V2 receptors induces the activation of the CRE-responsive promoter via cAMP increase, thereby inducing the expression of firefly luciferase. The light emitted by photoproteins of V1a cell lines as well as the light emitted by firefly luciferase of V2 cell lines corresponds to the activation or inhibition of the respective vasopressin receptor. The bioluminescence of the cell lines is detected using a suitable luminometer [Milligan G, Marshall F, Rees S, Trends in Pharmacological Sciences 17, 235-237 (1996)].
Vasopressin V2 Receptor Cell Lines:
On the day before the assay, the cells are plated out in culture medium (DMEM/F12, 2% FCS, 2 mM glutamine, 10 mM HEPES) in 384-well microtiter plates and kept in a cell incubator (96% humidity, 5% v/v CO2, 37° C.). On the day of the assay, test compounds in various concentrations and the agonist [Arg^8]-vasopressin at EC50 concentration are added together to the wells, and plates are incubated for 3 hours in a cell incubator. Upon addition of the cell lysis reagent Triton™ and the substrate luciferin, luminescence of firefly luciferase is measured in a luminometer.
(§3) Table 1A below lists individual IC50 values for the compounds of the invention (including racemic mixtures as well as separated enantiomers) that were obtained from cell lines transfected with the human V1a or V2 receptor: […]

[2] = biological target: human V1a receptor (Homo sapiens, UniProt P37288); test: Cellular in vitro assay for determining vasopressin receptor activity, V1a receptor cell line (photoprotein luminescence); assay type: cell-based; conditions: for IC50: CHO cell line transfected with the human V1a receptor, agonist [Arg8]-vasopressin at EC50 concentration, read-out: IC50 hV1a; for ratio IC50 hV2/hV1a: selectivity ratio of the cellular IC50 values
Procedure: as §1, §2
Vasopressin V1a Receptor Cell Lines:
On the day before the assay, the cells are plated out in culture medium (DMEM/F12, 2% FCS, 2 mM glutamine, 10 mM HEPES, 5 μg/ml coelenterazine) in 384-well microtiter plates and kept in a cell incubator (96% humidity, 5% v/v CO2, 37° C.). On the day of the assay, test compounds in various concentrations are placed for 10 minutes in the wells of the microtiter plate before the agonist [Arg^8]-vasopressin at EC50 concentration is added. The resulting light signal is measured immediately in a luminometer.
as §3

T1 sequence (P30518 whole entry): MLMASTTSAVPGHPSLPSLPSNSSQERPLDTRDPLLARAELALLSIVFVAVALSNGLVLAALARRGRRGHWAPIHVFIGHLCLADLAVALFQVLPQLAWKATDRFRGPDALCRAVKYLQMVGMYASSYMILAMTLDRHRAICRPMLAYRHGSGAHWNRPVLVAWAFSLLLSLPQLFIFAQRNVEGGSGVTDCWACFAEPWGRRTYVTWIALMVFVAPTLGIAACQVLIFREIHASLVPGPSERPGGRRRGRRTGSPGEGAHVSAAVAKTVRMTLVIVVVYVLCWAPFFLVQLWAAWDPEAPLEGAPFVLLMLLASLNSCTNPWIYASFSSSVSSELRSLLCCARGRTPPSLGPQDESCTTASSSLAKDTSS
human V1a receptor, sequence (P37288 whole entry): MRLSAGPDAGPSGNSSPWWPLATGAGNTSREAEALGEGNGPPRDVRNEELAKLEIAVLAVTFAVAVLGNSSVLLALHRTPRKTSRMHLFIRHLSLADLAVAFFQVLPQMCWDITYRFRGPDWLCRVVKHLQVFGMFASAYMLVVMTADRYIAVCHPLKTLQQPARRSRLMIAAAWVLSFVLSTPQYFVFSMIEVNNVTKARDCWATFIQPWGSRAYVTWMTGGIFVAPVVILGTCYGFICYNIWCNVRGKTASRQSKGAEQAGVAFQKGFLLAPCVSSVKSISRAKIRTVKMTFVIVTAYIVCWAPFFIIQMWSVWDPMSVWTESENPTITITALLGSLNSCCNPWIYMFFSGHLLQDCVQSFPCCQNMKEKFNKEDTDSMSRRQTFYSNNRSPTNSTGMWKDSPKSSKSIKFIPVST

O=C1CCC(Nc2nc(Cn3nc(-c4ccc(Cl)cc4)n(C[C@H](O)C(F)(F)F)c3=O)nn2-c2ccccc2Cl)CN1 (mixture of isomers) [Example 60, 5-{[1-(2-Chlorophenyl)-3-({3-(4-chlorophenyl)-5-oxo-4-[(2S)-3,3,3-trifluoro-2-hydroxypropyl]-4,5-dihydro-1H-1,2,4-triazol-1-yl}methyl)-1H-1,2,4-triazol-5-yl]amino}piperidin-2-one]
IC50 [1]: 5.4 nM
IC50 [2]: 0.44 nM
ratio IC50 hV2/hV1a [2]: 12.3

O=C1CCC(CNc2nc(Cn3nc(-c4ccc(Cl)cc4)n(C[C@H](O)C(F)(F)F)c3=O)nn2-c2ccccc2Cl)N1 (mixture of isomers) [Example 63, 5-(4-Chlorophenyl)-2-{[1-(2-chlorophenyl)-5-({[5-oxopyrrolidin-2-yl]methyl}amino)-1H-1,2,4-triazol-3-yl]methyl}-4-[(2S)-3,3,3-trifluoro-2-hydroxypropyl]-2,4-dihydro-3H-1,2,4-triazol-3-one]
IC50 [1]: 5.8 nM
IC50 [2]: 0.42 nM
ratio IC50 hV2/hV1a [2]: 14.0

O=c1n(Cc2nc(N3CCNC(C(F)(F)F)C3)n(-c3ccccc3Cl)n2)nc(-c2ccc(Cl)cc2)n1C[C@H](O)C(F)(F)F (mixture of isomers) [Example 66]
IC50 [1]: 6.9 nM
IC50 [2]: 0.37 nM
ratio IC50 hV2/hV1a [2]: 18.9

O=C1CC(Nc2nc(Cn3nc(-c4ccc(Cl)cc4)n(C[C@H](O)C(F)(F)F)c3=O)nn2-c2ccccc2Cl)CN1 (mixture of isomers) [Example 69, 5-(4-Chlorophenyl)-2-{[1-(2-chlorophenyl)-5-{[5-oxopyrrolidin-3-yl]amino}-1H-1,2,4-triazol-3-yl]methyl}-4-[(2S)-3,3,3-trifluoro-2-hydroxypropyl]-2,4-dihydro-3H-1,2,4-triazol-3-one]
IC50 [1]: 4.35 nM
IC50 [2]: 1.05 nM
ratio IC50 hV2/hV1a [2]: 4.2

O=c1n(Cc2nc(N3CCOC(C(F)(F)F)C3)n(-c3ccccc3Cl)n2)nc(-c2ccc(Cl)cc2)n1C[C@H](O)C(F)(F)F (mixture of isomers) [Example 77, 5-(4-Chlorophenyl)-2-({1-(2-chlorophenyl)-5-[2-(trifluoromethyl)morpholin-4-yl]-1H-1,2,4-triazol-3-yl}methyl)-4-[(2S)-3,3,3-trifluoro-2-hydroxypropyl]-2,4-dihydro-3H-1,2,4-triazol-3-one]
IC50 [1]: 39 nM
IC50 [2]: 1.5 nM
ratio IC50 hV2/hV1a [2]: 26.0

O=C1CCC(Nc2nc(Cn3nc(-c4ccc(Cl)cc4)n(C[C@H](O)C(F)(F)F)c3=O)nn2CCC(F)(F)F)CN1 (mixture of isomers) [Example 99, 5-{[3-({3-(4-Chlorophenyl)-5-oxo-4-[(2S)-3,3,3-trifluoro-2-hydroxypropyl]-4,5-dihydro-1H-1,2,4-triazol-1-yl}methyl)-1-(3,3,3-trifluoropropyl)-1H-1,2,4-triazol-5-yl]amino}piperidin-2-one]
IC50 [1]: 350 nM
IC50 [2]: 10.2 nM
ratio IC50 hV2/hV1a [2]: 34.5

O=c1n(Cc2nc(N3CCOC(C(F)(F)F)C3)n(CCC(F)(F)F)n2)nc(-c2ccc(Cl)cc2)n1C[C@H](O)C(F)(F)F (mixture of isomers) [Example 103, 5-(4-Chlorophenyl)-4-[(2S)-3,3,3-trifluoro-2-hydroxypropyl]-2-({5-[2-(trifluoromethyl)morpholin-4-yl]-1-(3,3,3-trifluoropropyl)-1H-1,2,4-triazol-3-yl}methyl)-2,4-dihydro-3H-1,2,4-triazol-3-one]
IC50 [1]: 245 nM
IC50 [2]: 30 nM
ratio IC50 hV2/hV1a [2]: 8.2

O=c1n(Cc2nc(N3CCNC(C(F)(F)F)C3)n(CCC(F)(F)F)n2)nc(-c2ccc(Cl)cc2)n1C[C@H](O)C(F)(F)F (mixture of isomers) [Example 106, 5-(4-Chlorophenyl)-4-[(2S)-3,3,3-trifluoro-2-hydroxypropyl]-2-({5-[3-(trifluoromethyl)piperazin-1-yl]-1-(3,3,3-trifluoropropyl)-1H-1,2,4-triazol-3-yl}methyl)-2,4-dihydro-3H-1,2,4-triazol-3-one]
IC50 [1]: 310 nM
IC50 [2]: 26.5 nM
ratio IC50 hV2/hV1a [2]: 11.7

NC(CNc1nc(Cn2nc(-c3ccc(Cl)cc3)n(C[C@H](O)C(F)(F)F)c2=O)nn1-c1ccccc1Cl)C(F)(F)F (single isomer, unassigned) [Example 7]
IC50 [1]: 1.12 nM
IC50 [2]: 0.22 nM
ratio IC50 hV2/hV1a [2]: 5.2

NC(CNc1nc(Cn2nc(-c3ccc(Cl)cc3)n(C[C@H](O)C(F)(F)F)c2=O)nn1-c1ccccc1Cl)C(F)(F)F (single isomer, unassigned) [Example 8]
IC50 [1]: 1.69 nM
IC50 [2]: 0.31 nM
ratio IC50 hV2/hV1a [2]: 5.5

O=c1n(Cc2nc(N3CCC(O)(C(F)(F)F)C3)n(-c3ccccc3Cl)n2)nc(-c2ccc(Cl)cc2)n1C[C@H](O)C(F)(F)F (single isomer, unassigned) [Example 14]
IC50 [1]: 5.85 nM
IC50 [2]: 0.96 nM
ratio IC50 hV2/hV1a [2]: 6.1

O=c1n(Cc2nc(N3CCC(O)(C(F)(F)F)C3)n(-c3ccccc3Cl)n2)nc(-c2ccc(Cl)cc2)n1C[C@H](O)C(F)(F)F (single isomer, unassigned) [Example 15]
IC50 [1]: 11.4 nM
IC50 [2]: 3.4 nM
ratio IC50 hV2/hV1a [2]: 3.4

O=C1NCCC1Nc1nc(Cn2nc(-c3ccc(Cl)cc3)n(C[C@H](O)C(F)(F)F)c2=O)nn1-c1ccccc1Cl (single isomer, unassigned) [Example 17]
IC50 [1]: 1.9 nM
IC50 [2]: 0.5 nM
ratio IC50 hV2/hV1a [2]: 3.8

O=C1NCCC1Nc1nc(Cn2nc(-c3ccc(Cl)cc3)n(C[C@H](O)C(F)(F)F)c2=O)nn1-c1ccccc1Cl (single isomer, unassigned) [Example 18]
IC50 [1]: 1.35 nM
IC50 [2]: 0.81 nM
ratio IC50 hV2/hV1a [2]: 1.7

CC1(O)CCN(c2nc(Cn3nc(-c4ccc(Cl)cc4)n(C[C@H](O)C(F)(F)F)c3=O)nn2-c2ccccc2Cl)C1 (single isomer, unassigned) [Example 30]
IC50 [1]: 2.7 nM
IC50 [2]: 0.38 nM
ratio IC50 hV2/hV1a [2]: 7.2

CC1(O)CCN(c2nc(Cn3nc(-c4ccc(Cl)cc4)n(C[C@H](O)C(F)(F)F)c3=O)nn2-c2ccccc2Cl)C1 (single isomer, unassigned) [Example 31]
IC50 [1]: 8.35 nM
IC50 [2]: 1.08 nM
ratio IC50 hV2/hV1a [2]: 7.7

O=C1CCC(Nc2nc(Cn3nc(-c4ccc(Cl)cc4)n(C[C@H](O)C(F)(F)F)c3=O)nn2-c2ccccc2Cl)CN1 (single isomer, unassigned) [Example 61]
IC50 [1]: 10.1 nM
IC50 [2]: 1.35 nM
ratio IC50 hV2/hV1a [2]: 7.4

O=C1CCC(Nc2nc(Cn3nc(-c4ccc(Cl)cc4)n(C[C@H](O)C(F)(F)F)c3=O)nn2-c2ccccc2Cl)CN1 (single isomer, unassigned) [Example 62]
IC50 [1]: 9.45 nM
IC50 [2]: 1.3 nM
ratio IC50 hV2/hV1a [2]: 7.3

O=C1CCC(CNc2nc(Cn3nc(-c4ccc(Cl)cc4)n(C[C@H](O)C(F)(F)F)c3=O)nn2-c2ccccc2Cl)N1 (single isomer, unassigned) [Example 64]
IC50 [1]: 4.35 nM
IC50 [2]: 0.8 nM
ratio IC50 hV2/hV1a [2]: 5.5

O=C1CCC(CNc2nc(Cn3nc(-c4ccc(Cl)cc4)n(C[C@H](O)C(F)(F)F)c3=O)nn2-c2ccccc2Cl)N1 (single isomer, unassigned) [Example 65]
IC50 [1]: 6.45 nM
IC50 [2]: 0.63 nM
ratio IC50 hV2/hV1a [2]: 10.2

O=c1n(Cc2nc(N3CCNC(C(F)(F)F)C3)n(-c3ccccc3Cl)n2)nc(-c2ccc(Cl)cc2)n1C[C@H](O)C(F)(F)F (single isomer, unassigned) [Example 67]
IC50 [1]: 22 nM
IC50 [2]: 1.16 nM
ratio IC50 hV2/hV1a [2]: 19.0

O=c1n(Cc2nc(N3CCNC(C(F)(F)F)C3)n(-c3ccccc3Cl)n2)nc(-c2ccc(Cl)cc2)n1C[C@H](O)C(F)(F)F (single isomer, unassigned) [Example 68]
IC50 [1]: 13.5 nM
IC50 [2]: 0.45 nM
ratio IC50 hV2/hV1a [2]: 30.3
